From PubChem BioAssay AID1918939 (Molecular Pharmacology Branch, DTP, NCI, 2023)

System: 653999-131-R-J2-PDC complex spheroid viability
Assay: Anticancer human tumor 653999-131-R-J2-PDC patient-derived lung adenocarcinoma cell line growth inhibition
Conditions: for IC50: curve of first compound; for viability, T/C: stronger effect = lower value
How it was run: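 Drug combinations with the LSD1 inhibitor iadademstat tested on tumor cells co-cultured as spheroids with endothelial cells and mesenchymal stem cells. Concentrations descended in half-log increments from clinical Cmax or 10 microM.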

[1] = second compound 0.1 µM, first compound 0.000316 µM
[2] = second compound 0.1 µM, first compound 0.001 µM
[3] = second compound 0.1 µM, first compound 0.00316 µM
[4] = second compound 0.1 µM, first compound 0.01 µM
[5] = second compound 0.1 µM, first compound 0.0316 µM
[6] = second compound 0.1 µM, first compound 0.1 µM
[7] = second compound 0.316 µM, first compound 0.000316 µM
[8] = second compound 0.316 µM, first compound 0.001 µM
[9] = second compound 0.316 µM, first compound 0.00316 µM
[10] = second compound 0.316 µM, first compound 0.01 µM
[11] = second compound 0.316 µM, first compound 0.0316 µM
[12] = second compound 0.316 µM, first compound 0.1 µM
[13] = second compound 1 µM, first compound 0.000316 µM
[14] = second compound 1 µM, first compound 0.001 µM
[15] = second compound 1 µM, first compound 0.00316 µM
[16] = second compound 1 µM, first compound 0.01 µM
[17] = second compound 1 µM, first compound 0.0316 µM
[18] = second compound 1 µM, first compound 0.1 µM
[19] = second compound 3.16 µM, first compound 0.000316 µM
[20] = second compound 3.16 µM, first compound 0.001 µM
[21] = second compound 3.16 µM, first compound 0.00316 µM
[22] = second compound 3.16 µM, first compound 0.01 µM
[23] = second compound 3.16 µM, first compound 0.0316 µM
[24] = second compound 3.16 µM, first compound 0.1 µM
[25] = second compound 10 µM, first compound 0.000316 µM
[26] = second compound 10 µM, first compound 0.001 µM
[27] = second compound 10 µM, first compound 0.00316 µM
[28] = second compound 10 µM, first compound 0.01 µM
[29] = second compound 10 µM, first compound 0.0316 µM
[30] = second compound 10 µM, first compound 0.1 µM
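Further: spheroids exposed to agents for seven days before readout.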

Row | Structure (SMILES) | IC50 (second compound 0.1 µM) [nM] | IC50 (second compound 0.316 µM) [nM] | IC50 (second compound 1 µM) [nM] | IC50 (second compound 3.16 µM) [nM] | IC50 (second compound 10 µM) [nM] | viability, T/C [1] [%] | viability, T/C [2] [%] | viability, T/C [3] [%] | viability, T/C [4] [%] | viability, T/C [5] [%] | viability, T/C [6] [%] | viability, T/C [7] [%] | viability, T/C [8] [%] | viability, T/C [9] [%] | viability, T/C [10] [%] | viability, T/C [11] [%] | viability, T/C [12] [%] | viability, T/C [13] [%] | viability, T/C [14] [%] | viability, T/C [15] [%] | further results
1 | CC(C)CC(NC(=O)C(Cc1ccccc1)NC(=O)c1cnccn1)B(O)O (stereo not given) + NC1CCC(NC2CC2c2ccccc2)CC1 | 2.28 | 2.47 | 2.96 | 2.31 | 2.2 | 108 | 107 | 27.5 | 3.82 | 2.01 | 1.51 | 123 | 124 | 30.1 | 5.95 | 0.76 | 1.38 | 115 | 115 | 46.1 | viability, T/C [16]: 4.39%; viability, T/C [17]: 1.9%; viability, T/C [18]: 1.12%; viability, T/C [19]: 97.6%; viability, T/C [20]: 123%; viability, T/C [21]: 27.4%; viability, T/C [22]: 3.37%; viability, T/C [23]: 1.02%; viability, T/C [24]: 2.22%; viability, T/C [25]: 117%; viability, T/C [26]: 119%; viability, T/C [27]: 18.5%; viability, T/C [28]: 2.92%; viability, T/C [29]: 1.36%; viability, T/C [30]: 0.56%
2 | CC(C)CC(NC(=O)CNC(=O)c1cc(Cl)ccc1Cl)B1OC(=O)CC(CC(=O)O)(C(=O)O)O1 (stereo not given) + NC1CCC(NC2CC2c2ccccc2)CC1 | 9.68 | 13.9 | 10.9 | 11.1 | 11.5 | 98.5 | 102 | 106 | 48.4 | 28.5 | 10.7 | 80.7 | 102 | 99 | 60.4 | 21.9 | 8.68 | 87.8 | 90.5 | 95.8 | viability, T/C [16]: 52.7%; viability, T/C [17]: 19.4%; viability, T/C [18]: 10.1%; viability, T/C [19]: 99.1%; viability, T/C [20]: 85.4%; viability, T/C [21]: 106%; viability, T/C [22]: 53.1%; viability, T/C [23]: 26.5%; viability, T/C [24]: 9.89%; viability, T/C [25]: 98.2%; viability, T/C [26]: 104%; viability, T/C [27]: 122%; viability, T/C [28]: 55.4%; viability, T/C [29]: 18.4%; viability, T/C [30]: 5%
